Here are results for one molecule from publication PMC10047683, “A Novel Family of Lysosomotropic Tetracyclic Compounds for Treating Leukemia” (Cancers, 2023).

In test [1] the test system is panel of 7 AML cell lines. Briefly: Dose-response viability curves, whole panel. Type of test: cell-based. The conditions noted are these: mean of the 7 AML cell lines; 48 h. How it is done:
First, 2 × 10^5 (72 h assays in cell lines (Supplementary File S1)), 3 × 10^5 (48 h assays in cell lines) or 7.5 × 10^5 (primary AML, healthy donor buffy coats) cells per mL were cultured in 96-well plates, and all drugs were added at the indicated concentrations. In α-tocopherol experiments, cells were treated with growing concentrations of α-tocopherol and EDK drugs for 48 h. In the NAC and 3MA experiments, treatment was simultaneous with EDK compounds. In glucose deprivation experiments, cells were cultivated with a standard medium (glucose high, 2 g/L), a standard medium without glucose, or a standard medium with galactose (2 g/L) and without glucose. Cell viability was measured via 7-AAD (eBioscience) exclusion and Hoechst33342 (Sigma-Aldrich, St. Louis, MO, USA) positivity staining via flow cytometry, and the cell count was obtained through volume. In the experiments with the primary cells, analyses were performed inside the blast population as detected via blast gates (CD45^low SSC^int). For solid tumor cell lines, viability was analyzed using CellTiter-Glo® Luminescent Cell Viability Assay (Promega).

For another test, the system named is MonoMac1 AML cells. Briefly: MonoMac1 AML xenograft, bone-marrow engraftment. The format is in vivo, NSG mice. The conditions noted are these: 30 mg/kg IP, 10 consecutive days; engraftment at Day 12. The protocol:
We myeloablated 6–8-week-old NOD.Cg-Prkdc^scid Il2rg^tm1Wjl/SzJ (NSG, Jackson Laboratories) mice with busulfan (30 mg/kg IP) at Day 0. The next day, mice were transplanted with KG1 (10 million cells per mouse) or MonoMac1 (1 million per mouse) AML cells that had previously been transduced with luciferase-containing plasmid pLL-EF1a-rFLuc-T2A-GFP (Systems Bioscience #LL410PA-1) and left untreated for 3 (MonoMac1) or 5 days (KG1). For IP administration, compounds were dissolved in DMSO and diluted in saline prior to injection. For SC treatments, drugs were solubilized using Tween 80 (Escuder) and high-viscosity carboxymethylcellulose (CMC, Merck). For bioluminescence detection, mice were SC-administered 150 mg/kg Xenolight D-luciferin potassium salt luminescent substrate (Perkin Elmer), and the luminescence of isoflurane-anesthetized mice was acquired after 10 min in an IVIS Lumina II imaging device (Perkin Elmer) at adequate acquisition times (2 min for MonoMac-1, 30 s for KG1). The following quantitation and analysis were conducted with Aura Imaging software (Spectral Instruments Imaging). The last day of the experiment, mice were culled, and tibias and femurs were harvested. Engraftment was determined as the percentage of live human CD45-expressing cells in the bone marrow as assessed with flow cytometry. […]

The subject of test [2] is intracellular calcium in HL60 cells. Briefly: Calcium mobilization assay (Fura2 probe). Type of test: cell-based. The conditions noted are these: 10 µM EDK-87/EDK-88, 50 µM chloroquine. The protocol:
1,000 cells of AML cell lines or 50,000 primary cells (both AML and lin-depleted UCB) were treated at the indicated concentration for 18 h, and cultured in 1 mL of MethoCult H4034 Optimum (StemCell Technologies, Vancouver, BC, Canada).
Colonies were screened based on morphology and cellularity at day 7 (cell lines) […]
Calcium mobilization assay
1 x 10^6 cells per mL were loaded for 30’ at 37 °C with the Fura-2-AM probe (Thermo Fisher) at a final 2 µM concentration in pre-warmed calcium- and magnesium-free Hanks BSA solution. Cells were then washed and resuspended in Hanks BSA solution with calcium and magnesium at 3 x 10^5 cells per mL. In parallel, 50µL of drugs in Hanks BSA solution with calcium and magnesium were added to 96-well black wall clear bottom plates and background fluorescence […]
Cells were then added to the plate
(50µL/well) and fluorescence was acquired at indicated timepoints using a Synergy HT Multi-Detection Microplate Reader (BioTek). For the analysis, all values were subtracted their corresponding background fluorescence, and the ratio 340/380 was calculated. Finally, ratios were normalized to vehicle-treated […]
Semi-Quantitative Real Time PCR

The EC50 is the concentration at which the effect is half-maximal. High values mean weaker potency, low ones greater potency.

Each structure is given as a SMILES string.

Take `CN1CCC(=C2c3ccccc3-c3c2sc2ccccc32)CC1` [EDK-87]: it took 7.7 ± 0.7 µM to reach a half-maximal effect in test [1] (EC50). Further, the “reduced the leukemic burden in the bone marrow” value in the test with MonoMac1 AML cells is recorded as 58.44%. Also, the intracellular calcium mobilization result in test [2] is given as “few changes in calcium release”.
